Source: ChEMBL document CHEMBL4513139, “CO-ADD screening of University of Strathclyde (UK) compounds”

Key:
HEK293 = assay: cells; assay type: functional, Homo sapiens, ATCC CRL1573; conditions: Homo sapiens, ATCC CRL1573, HEK293; ASSAY_TEST Inhibition of Cell Viability; detection method Resazurin; Fluorescence (ex560/em590); MEDIA DMEM with 10% FBS; plate type 384well; TC; CORNING #3712; time 18 hr; read-out: CC50
Acinetobacter baumannii = assay: microbe, parasite or virus in culture; conditions: ATCC 19606, 18 h, ASSAY_TEST Inhibition of Bacterial Growth, detection method Absorption (OD600), MEDIA CAMHB, plate type 384well, NBS, CORNING #3640
Description: Antibacterial activity against Acinetobacter baumannii ATCC 19606 (CO-ADD:GN_034); MIC in CAMBH media using NBS plates, by OD600

Candida albicans = assay: microbe, parasite or virus in culture; conditions: ATCC 90028, ASSAY_TEST Inhibition of Fungal Growth, detection method Absorption (OD530), plate type 384well, NBS, CORNING #3640
Description: Antifungal activity against Candida albicans ATCC 90028 (CO-ADD:FG_001); MIC in YNB media using NBS plates, by OD630

Staphylococcus aureus = assay: microbe, parasite or virus in culture; conditions: ATCC 43300, 18 h, ASSAY_TEST Inhibition of Bacterial Growth, detection method Absorption (OD600), MEDIA CAMHB, plate type 384well, NBS, CORNING #3640
Description: Antibacterial activity against Staphylococcus aureus MRSA ATCC 43300 (CO-ADD:GP_020); MIC in CAMBH media, using NBS plates, by OD(600)

Pseudomonas aeruginosa = assay: microbe, parasite or virus in culture; conditions: ATCC 27853, 18 h, ASSAY_TEST Inhibition of Bacterial Growth, detection method Absorption (OD600), MEDIA CAMHB, plate type 384well, NBS, CORNING #3640
Description: Antibacterial activity against Pseudomonas aeruginosa ATCC 27853 (CO-ADD:GN_042); MIC in CAMBH media using NBS plates, by OD(600)

Escherichia coli = assay: microbe, parasite or virus in culture; conditions: ATCC 25922, 18 h, ASSAY_TEST Inhibition of Bacterial Growth, detection method Absorption (OD600), MEDIA CAMHB, plate type 384well, NBS, CORNING #3640
Description: Antibacterial activity against Escherichia coli ATCC 25922 (CO-ADD:GN_001); MIC in CAMBH media using NBS plates, by OD(600)

Klebsiella pneumoniae = assay: microbe, parasite or virus in culture; conditions: ATCC 700603, 18 h, ASSAY_TEST Inhibition of Bacterial Growth, detection method Absorption (OD600), MEDIA CAMHB, plate type 384well, NBS, CORNING #3640
Description: Antibacterial activity against Klebsiella pneumoniae MDR ATCC 70063 (CO-ADD:GN_003); MIC in CAMBH media using NBS plates, by OD(600)

Description for Cryptococcus neoformans: Antifungal activity against Cryptococcus neoformans H99 ATCC 208821 (CO-ADD:FG_002); MIC in YNB media using NBS plates, by Resazurin OD(600-570)

| MIC (Acinetobacter baumannii) | MIC (Candida albicans) | MIC (Staphylococcus aureus) | MIC (Cryptococcus neoformans) | MIC (Pseudomonas aeruginosa) | MIC (Escherichia coli) | MIC (Klebsiella pneumoniae) | SMILES | CC50 (HEK293) |
| --- | --- | --- | --- | --- | --- | --- | --- | --- |
| > 32 µg/mL | > 32 µg/mL | > 32 µg/mL | > 32 µg/mL | > 32 µg/mL | > 32 µg/mL | > 32 µg/mL | COC(=O)CCC(=O)Nc1cc(C(=O)Nc2cc(C(=O)Nc3nc(C(=O)NCCCN(C)C)c(CCC(C)C)s3)n(C)c2)n(C)c1 | > 32 µg/mL |
| > 32 µg/mL | > 32 µg/mL | > 32 µg/mL | > 32 µg/mL | > 32 µg/mL | > 32 µg/mL | > 32 µg/mL | COc1ccc(/C=C/c2ccc(C(=O)Nc3cc(C(=O)Nc4cc(C(=O)NCCN5CCOCC5)n(C)c4)n(C)c3)cn2)cc1.O=C(O)C(F)(F)F.O=C(O)C(F)(F)F | 27.1 µg/mL |
| > 32 µg/mL | > 32 µg/mL | > 32 µg/mL | > 32 µg/mL | > 32 µg/mL | > 32 µg/mL | > 32 µg/mL | COc1ccc(C(=N)Nc2cc(C(=O)Nc3cc(C(=O)NCCN4CCOCC4)n(CCCc4cn(CCc5ccccc5)nn4)c3)n(C)c2)cc1.O=C(O)C(F)(F)F.O=C(O)C(F)(F)F | > 32 µg/mL |
| > 32 µg/mL | > 32 µg/mL | > 32 µg/mL | > 32 µg/mL | > 32 µg/mL | > 32 µg/mL | > 32 µg/mL | COc1ccc(/C=C/c2ccc(C(=O)Nc3cc(C(=O)Nc4cc(C(=O)NCCN5CCOCC5)n(CCCc5cn(CCc6ccccc6)nn5)c4)n(C)c3)cn2)cc1 | > 32 µg/mL |
| > 32 µg/mL | > 32 µg/mL | 8 µg/mL | > 32 µg/mL | > 32 µg/mL | > 32 µg/mL | > 32 µg/mL | CC(C)CCc1sc(NC(=O)c2cc(NC(=O)c3cc(NC(=O)c4sc(N)nc4C(F)(F)F)cn3C)cn2C)nc1C(=O)NCCCN(C)C.O=C(O)C(F)(F)F | 2.48 µg/mL |
| > 32 µg/mL | > 32 µg/mL | > 32 µg/mL | 32 µg/mL | > 32 µg/mL | > 32 µg/mL | > 32 µg/mL | COc1cccc(/C=C/c2ccc(C(=O)Nc3cc(C(=O)Nc4cc(C(=O)NCCN5CCOCC5)n(CCCc5cn(CCc6ccccc6)nn5)c4)n(C)c3)cc2)c1.O=C(O)C(F)(F)F | > 32 µg/mL |
| > 32 µM | > 32 µM | > 32 µM | > 32 µM | > 32 µM | > 32 µM | > 32 µM | Cn1cc(NC(=O)c2cc(NC(=N)c3ccccc3)cn2C)cc1C(=O)NCCC(=N)N.O=C(O)C(F)(F)F.O=C(O)C(F)(F)F | > 32 µg/mL |
| > 32 µg/mL | 1 µg/mL | > 32 µg/mL | 2 µg/mL | > 32 µg/mL | > 32 µg/mL | > 32 µg/mL | Cc1ncc(Cn2cc(CCOS(C)(=O)=O)nn2)c(N)n1 | > 32 µg/mL |

More lines, now with the values behind:

| SMILES | MIC (Acinetobacter baumannii) | MIC (Candida albicans) | MIC (Staphylococcus aureus) | MIC (Cryptococcus neoformans) | MIC (Pseudomonas aeruginosa) | MIC (Escherichia coli) | MIC (Klebsiella pneumoniae) | CC50 (HEK293) |
| --- | --- | --- | --- | --- | --- | --- | --- | --- |
| COc1ccc(/C=C/c2ccc(C(=O)Nc3cc(C(=O)Nc4cc(C(=O)NCCN5CCC(O)CC5)n(C)c4)n(C)c3)cn2)cc1.O=C(O)C(F)(F)F.O=C(O)C(F)(F)F | > 32 µg/mL | > 32 µg/mL | > 32 µg/mL | > 32 µg/mL | > 32 µg/mL | > 32 µg/mL | > 32 µg/mL | > 32 µg/mL |
| Cn1cc(NC(=O)c2ccc(/C=C/c3ccncc3)cc2)cc1C(=O)Nc1cc(C(=O)NCCN2CCOCC2)n(CCCCl)c1.O=C(O)C(F)(F)F.O=C(O)C(F)(F)F | > 32 µg/mL | > 32 µg/mL | > 32 µg/mL | 16 µg/mL | > 32 µg/mL | > 32 µg/mL | > 32 µg/mL | 2.7 µg/mL |
| CC(=N)Nc1cc(C(=O)Nc2cc(C(=O)Nc3cc(C(=O)NCCCN(C)C)n(C)c3)n(C)c2)n(C)c1.O=C(O)C(F)(F)F.O=C(O)C(F)(F)F | > 32 µg/mL | > 32 µg/mL | > 32 µg/mL | > 32 µg/mL | > 32 µg/mL | > 32 µg/mL | > 32 µg/mL | > 32 µg/mL |
| CC(C)CCn1cc(NC(=O)c2cc(NC(=O)c3cc(NC(=N)c4cnc5ccccc5c4)cn3C)cn2C)cc1C(=O)NCCCN(C)C.O=C(O)C(F)(F)F.O=C(O)C(F)(F)F | > 32 µg/mL | > 32 µg/mL | 32 µg/mL | 8 µg/mL | > 32 µg/mL | 32 µg/mL | > 32 µg/mL | 11.6 µg/mL |
| Cn1cc(NC(=O)c2ccc(/C=C/c3cnc4ccccc4c3)cc2)cc1C(=O)Nc1nc(C(=O)NCCN2CCOCC2)c(CCc2ccccc2)s1.O=C(O)C(F)(F)F.O=C(O)C(F)(F)F | > 32 µg/mL | > 32 µg/mL | > 32 µg/mL | > 32 µg/mL | > 32 µg/mL | > 32 µg/mL | > 32 µg/mL | > 32 µg/mL |
| CC(C)c1sc(NC(=O)c2cc(NC(=O)c3cc(NC(=O)c4cc5ccccc5cn4)cn3C)cn2C)nc1C(=O)NCCN1CCOCC1.O=C(O)C(F)(F)F | > 32 µg/mL | > 32 µg/mL | > 32 µg/mL | 32 µg/mL | > 32 µg/mL | > 32 µg/mL | > 32 µg/mL | > 32 µg/mL |
| COc1cccc(/C=C/c2ccc(C(=O)Nc3cc(C(=O)Nc4cc(C(=O)NCCN5CCOCC5)n(C(C)C)c4)n(C)c3)cc2)c1.O=C(O)C(F)(F)F | > 32 µg/mL | > 32 µg/mL | > 32 µg/mL | > 32 µg/mL | > 32 µg/mL | > 32 µg/mL | > 32 µg/mL | 4.31 µg/mL |
| CN(C)CCCNC(=O)c1cc(NC(=O)c2cc(NC(=O)c3cc(NC(=N)c4cc5ccccc5cn4)cn3C)cn2C)cn1C.O=C(O)C(F)(F)F.O=C(O)C(F)(F)F | > 32 µg/mL | 32 µg/mL | > 32 µg/mL | 8 µg/mL | > 32 µg/mL | > 32 µg/mL | > 32 µg/mL | > 32 µg/mL |
| CC(C)CCn1cc(NC(=O)c2cc(NC(=O)c3cc(NC(=N)N)cn3C)cn2C)cc1C(=O)NCCCN(C)C.O=C(O)C(F)(F)F.O=C(O)C(F)(F)F | > 32 µg/mL | > 32 µg/mL | > 32 µg/mL | 32 µg/mL | > 32 µg/mL | > 32 µg/mL | > 32 µg/mL | > 32 µg/mL |
| Cn1cc(NC(=O)c2ccc(/C=C/c3ccncc3)cc2)cc1C(=O)Nc1cc(C(=O)NCCN2CCOCC2)n(CCCN2CCN(Cc3cccc4ccccc34)CC2)c1.O=C(O)C(F)(F)F.O=C(O)C(F)(F)F.O=C(O)C(F)(F)F.O=C(O)C(F)(F)F | > 32 µg/mL | 32 µg/mL | > 32 µg/mL | 2 µg/mL | > 32 µg/mL | > 32 µg/mL | > 32 µg/mL | 2.03 µg/mL |
| COc1cccc(C(=N)Nc2cc(C(=O)Nc3cc(C(=O)Nc4nc(C(=O)NCCCN(C)C)c(CCC(C)C)s4)n(C)c3)n(C)c2)c1.O=C(O)C(F)(F)F.O=C(O)C(F)(F)F | > 32 µg/mL | > 32 µg/mL | 2 µg/mL | 2 µg/mL | > 32 µg/mL | 32 µg/mL | > 32 µg/mL | > 32 µg/mL |
| COc1cccc(C(=N)Nc2cc(C(=O)Nc3nc(C(=O)NCCN4CCOCC4)c(CCc4ccccc4)s3)n(C)c2)c1.O=C(O)C(F)(F)F.O=C(O)C(F)(F)F | > 32 µg/mL | > 32 µg/mL | 32 µg/mL | 16 µg/mL | > 32 µg/mL | > 32 µg/mL | > 32 µg/mL | 2.59 µg/mL |
| Cn1cc(NC(=O)c2cc(NC(=O)c3ccc(/C=C/c4ccc(F)cc4)cc3)cn2C)cc1C(=O)NCCN1CCOCC1.O=C(O)C(F)(F)F | > 32 µg/mL | > 32 µg/mL | > 32 µg/mL | > 32 µg/mL | > 32 µg/mL | > 32 µg/mL | > 32 µg/mL | > 32 µg/mL |
| Cn1cc(NC(=O)c2ccc(/C=C/c3ccncc3)cc2)cc1C(=O)Nc1cc(C(=O)NCCN2CCOCC2)n(CCCN2CCOCC2)c1.O=C(O)C(F)(F)F.O=C(O)C(F)(F)F | > 32 µg/mL | > 32 µg/mL | 4 µg/mL | > 32 µg/mL | > 32 µg/mL | > 32 µg/mL | > 32 µg/mL | 4.65 µg/mL |
| CC(C)n1cc(NC(=O)c2cc(NC=O)cn2C)cc1C(=O)Nc1cc(C(=O)NCCCN(C)C)n(C)c1.O=C(O)C(F)(F)F | > 32 µg/mL | > 32 µg/mL | > 32 µg/mL | > 32 µg/mL | > 32 µg/mL | > 32 µg/mL | > 32 µg/mL | > 32 µg/mL |
| Cn1cc(NC(=O)c2cc(NC(=O)c3ccc(/C=C/c4ccc5ccccc5c4)cc3)cn2C)cc1C(=O)NCCN1CCOCC1.O=C(O)C(F)(F)F | > 32 µg/mL | 16 µg/mL | > 32 µg/mL | > 32 µg/mL | > 32 µg/mL | > 32 µg/mL | > 32 µg/mL | > 32 µg/mL |
| Cn1cc(NC(=O)c2ccc(/C=C/c3ccncc3)cc2)cc1C(=O)Nc1cc(C(=O)NCCN2CCOCC2)n(CCCSc2ccccc2)c1.O=C(O)C(F)(F)F.O=C(O)C(F)(F)F | > 32 µg/mL | > 32 µg/mL | > 32 µg/mL | > 32 µg/mL | > 32 µg/mL | > 32 µg/mL | > 32 µg/mL | > 32 µg/mL |
